Test results published in patent US9017936B2, “Assays for agents affecting megakaryocyte development” (Shire Human Genetic Therapies, Inc., priority 2009, dated 2015).
pEC50: −log10 of the molar value.

Assays:
[1] = test system: megakaryocytic cells from primary hematopoietic progenitor cells; experiment: Megakaryocyte growth in expanded CD34+ cells transduced with shControl or shTRB3; type: cell-based, human; conditions: for MK cell number: cultured one week with anagrelide; for Inhibition of megakaryocyte growth: vs DMSO
Source text: UT7/mpl cells (clone 5.1) (Goncalves et al., Leukemia 12:1355-1366 (1998)) or human umbilical cord blood CD34+ hematopoietic cells were infected with pLKO.1-puro lentiviral vectors carrying short hairpin (sh) RNA sequences against human TRB-3 (designated shTRB3.1 to shTRB3.5) or a non-targeting scramble shRNA (designated shControl). shRNA clones were purchased from Sigma.
Expanded CD34+ cells (see Materials and Methods Section of Example 1) were infected as described above and then were sub-cultured under standard megakaryocyte culture conditions with anagrelide or an equivalent amount of vehicle for 2 days prior to addition of 1 μg/ml puromycin and further differentiation for 5 days.
CD61 expression of live cells was analysed by flow cytometry following double staining with 7-amino actinomycin D and the FITC-conjugated monoclonal antibody Y2/51 (Dako cytomation) or an isotype-matched control antibody; the latter was used to set a boundary between positive and negative cells.
Table 1 illustrates the effect of TRB-3 silencing on the ability of anagrelide-to inhibit megakaryocyte growth in cultures of primary hematopoietic progenitor cells. Expanded CD34+ cells were infected overnight with shControl or with a mixture of shTRB3.4 and shTRB3.5. Cells were then cultured for one week in the presence of anagrelide or an equivalent amount of vehicle under standard megakaryocyte culture conditions, except that 1 ug/ml puromycin was added after 2 days. The number of megakaryocytic cells was determined by cell counting of viable cells and flow cytometry.

[2] = test system: phosphodiesterase type III; conditions: cited from earlier work
TRB-3 mRNA expression = experiment: TRB-3 expression assay (quantitative RT-PCR) in megakaryocyte cultures of expanded CD34+ cells; type: cell-based, human
Method: CD34+ cells were thawed, washed by centrifugation (300 g for 10 min at room temperature) in Stemspan™ medium (Stem Cell Technologies, London, UK) and then seeded in 48-well Falcon plates at a density of 1.5×10^5 cells/ml in the above culture medium supplemented with 100 U/ml penincillin, 0.1 mg/ml streptomycin, 0.25 μg/ml amphothericin B, 2% human umbilical cord blood plasma, 40 ng/ml TPO (Insight, UK), 50 ng/ml SCF, 100 ng/ml Flt3 ligand, and 10 ng/ml IL-3 (all from R&D Systems, Abingdon, UK). Cells were grown four days at 37° C. in a humidified incubator under 5% CO2/95% air.
The expanded cells were washed free of cytokines by centrifugation as above and re-suspended to 1.5×10^5 cells/ml by addition of fresh Stemspan™ culture medium containing 2% human umbilical cord plasma and 40 ng/ml TPO. Cells were then grown in 48-well Falcon plates at 37° C. in a humidified incubator under 5% CO2/95% air in the presence of either anagrelide, another test agent or an equivalent amount of vehicle (between 0.01% to 0.05% DMSO). At various time points the cells were harvested and processed for RNA extraction or for determination of CD61 antigen expression and total cell counting.
Cellular RNA was extracted with RNeasy reagent (Qiagen) according to the manufacturer's instructions and cDNA was prepared from 0.1-0.5 μg total RNA template using random hexamer primers and a High Capacity Reverse Transcription kit or a High Capacity RNA-to-cDNA Master Mix (Applied Biosystems). cDNA aliquots were either used immediately or stored at −20° C. for PCR analysis at a later stage. cDNA aliquots (equivalent to 5-10 ng of input RNA) were then analysed in duplicates by real-time PCR using gene-specific TaqMan probes on an ABI Prism 7500 Sequence Detection System (Applied Biosystems). Probes for TRB-3 (Hs00221754_m1), GpIIb (Hs00166246_m1), GUSB (Hs99999908_m1) and TBP (Hs99999910_m1) were commercially available from the Assay on Demand gene expression collection (Applied Biosystems). Thermal conditions were the following: 20 seconds at 95° C. followed by 40 cycles of 3 seconds at 94° C. and 30 seconds at 60° C. Reactions without cDNA were included as controls. Relative mRNA expression levels were calculated using the comparative cycle threshold (CT) method (Livak and Schmittgen, 2001) using the CT values obtained for β-glucuronidase (GUSB) or TATA Box binding protein (TBP) as internal references. For each target gene to be quantified, validation experiments were performed to determine that the efficiency of amplification of target and reference gene was approximately equal. When analysing dose responses EC50 values were calculated with Prism software (Version 4, GraphPad Software Inc, CA, USA).
In order to ascertain the sensitivity of the described method, dose-response curves were constructed based on the effect of anagrelide on TRB-3 mRNA expression using different numbers of cells. Cells were cultured for 4 days under standard MK culture conditions in the presence of increasing concentrations of anagrelide. RNA was extracted from the cells, and TRB-3 mRNA expression was determined by quantitative RT-PCR using β-glucuronidase as an endogenous reference. Results shown in FIG. 3 were expressed relative to the TRB-3 mRNA level detected in cells treated with vehicle alone. EC50 values were calculated using a sigmoidal dose response (variable slope) curve-fit model. Values in brackets represent the 95% CI. Error bars (SD) smaller than the size of the symbol are not shown.
Expanded CD34+ cells (see Materials and Methods Section of Example 1) were pre-incubated for various lengths of time under standard megakaryocyte culture conditions in the absence of the test agent and then treated with the test agent or an equivalent amount of vehicle for 24 hours prior to harvesting. TRB-3 mRNA expression was determined as described in the Materials and Methods Section of Example 1.

[3] = shTRB3 (shTRB3.4 + shTRB3.5)-transduced cells

| pEC50 (TRB-3 mRNA expression; Homo sapiens, 96 h, 4 days, standard MK culture, RNA extracted from 200,000 cells, 95% CI 9 to 27 nM, read-out: EC50 for increase in TRB-3 mRNA expression) | Compound | MK cell number ([1]; shControl-transduced cells) | Inhibition of megakaryocyte growth ([1]; shControl-transduced cells) | MK cell number [1, 3] | Inhibition of megakaryocyte growth [1, 3] | inhibition of phosphodiesterase type III [2] | TRB-3 mRNA response to 24 h exposure (TRB-3 mRNA expression; 1 μM, 24 h exposure following the refractory phase (after initial 2-3 days)) | TRB-3 mRNA response to 24 h exposure (TRB-3 mRNA expression; 1 μM, exposure confined to the initial 2-3 days of culture) | TRB-3 expression, 24 h treatment after three days of culture vs continuous four day exposure (TRB-3 mRNA expression; 1 μM, last 24 h vs continuous) | extent of TRB-3 expression response (fold increase vs vehicle) (TRB-3 mRNA expression; 4 days, RNA extracted from 25,000 cells) | extent of TRB-3 expression response (fold increase vs vehicle) (TRB-3 mRNA expression; 4 days, RNA extracted from 200,000 cells) | effect on TRB-3 expression (TRB-3 mRNA expression) |
| --- | --- | --- | --- | --- | --- | --- | --- | --- | --- | --- | --- | --- |
| 7.82 | O=C1CN2Cc3c(ccc(Cl)c3Cl)N=C2N1 [Anagrelide, 6,7-dichloro-1,5-dihydroimidazo (2,1-b)quinazolin-2(3H)-one] | 106 ×10^3 | 49.3% | 202 ×10^3 | 21.5% | potent inhibitor | sharp increase in TRB-3 expression | relatively weak | higher level of TRB-3 expression than if the drug was present for the entire four day period of culture | 1.8 fold | 3 fold | – |
| – | TPO: thrombopoietin, the primary signal for megakaryocyte production | – | – | – | – | – | – | – | – | – | – | reduces TRB-3 expression |
